“Also recorded” adds a separate entry of the source. Where two headings read alike, the source gives them in different places.
Columns and labels:
[1] = tested on: parsley XET activity; experiment: Radiochemical XET assay (soluble xyloglucan + [3H]XXXGol); type: biochemical; conditions: for effect on XET activity in radiochemical assays (as summarised in the discussion): free solution; for effect on XET activity, radiochemical re-screen of 206 compounds (mostly LATCA): LATCA approx. 25 μM, EDI approx. 200 μg/ml, listed in order of decreasing effectiveness; for effect on XET activity, first radiochemical re-screen of EDI hits: most xenobiotics at 200 μg/ml (≈200–800 μM); for inhibition of XET activity: additional LATCA compounds re-tested radiochemically at 200 μM
Procedure: The parsley enzyme concentration was held constant, and the xenobiotics were tested at 200, 160, 120, 80, 40, 20, 10 and 0 μg/ml (concentrations in the final reaction mixture). Other details were as above.
The riboflavin-free controls received the same DMSO concentration.

[2] = tested on: Petroselinum xyloglucan endotransglucosylase (XET) activity; experiment: Fluorescent dot-blot XET screen (cellulose-bound xyloglucan + XGO–SR on paper, in the dark); type: biochemical, parsley; conditions: for coagulation ('type c' effect) in dot-blot: EDI collection, 0.4 mg/ml in enzyme mixture
Procedure: For inhibitor screening, 53 new 96-well plates were set up with 50 μl of parsley enzyme extract per well, and 1 μl of DMSO-solubilised xenobiotic was added to each well, giving concentrations of 0.4 mg/ml (EDI collection, with exceptions noted in Table S2) or 50 μM (LATCA collection) and 2% v/v DMSO.
XET test-paper was prepared as before ([Fry, 1997]) and 112 × 75-mm sheets were attached to cellulose acetate overhead-projector sheets with ‘Spraymount’ adhesive. Each sheet was placed on a pre-cooled glass plate in a cold room at 4 °C.
For inhibitor screening (Fig. 2), 4 μl of a parsley enzyme/xenobiotic mixture was applied to each position on a sheet. Incubation at 20 °C for 2 h, washing, drying and photography were conducted essentially as above.

[3] = tested on: Zea cell-suspension cultures; experiment: Membrane function ([14C]proline uptake) in Zea culture; type: cell-based, Zea mays; conditions: 4 d after xenobiotic, higher tested concentration
[4] = tested on: Zea cell-suspension cultures; experiment: Cell expansion (SCV, PCV) in Zea cell-suspension culture; type: cell-based, Zea mays; conditions: Zea, 4 d incubation
Procedure: Cell-suspension cultures of “Paul’s Scarlet” rose [a complex hybrid; genus Rosa; isolated in October 1957 from sections of young stem material; [Nickell and Tulecke, 1959]) and maize (Zea mays L., Black Mexican Sweetcorn, donated by Dr. I. Moore, Department of Botany, University of Edinburgh) were grown under constant dim illumination (10 μmol m^−2 s^−1) on an orbital shaker at 25 °C. Rose cells were maintained as described by [Chormova et al. (2014)] and maize cells as described by [Kerr and Fry (2003)].
Eight xenobiotics that inhibited XET activity were selected for biological testing. Mini-cultures [2 ml, 5% (v/v) SCV; transferred from a standard culture 7 d after sub-culturing] were incubated in 12-well tissue culture microplates with the lids closed loosely. Xenobiotics were added as concentrated stocks in DMSO (final DMSO concentration 2%), and incubation was continued aseptically under standard conditions of temperature, lighting and shaking. After 4 d, 1 kBq of [^14C]proline was added per mini-culture. A small volume of medium (50 μl) was sampled 2 and 4 h after [^14C]proline addition and assayed for remaining extracellular ^14C. The culture was brought up to 10 ml with water and the settled and packed cell volumes (SCV, PCV) were then measured ([Fry and Street, 1980]). Most of the culture medium was then removed and the cells were finally killed by addition of 0.5 ml of 6% SDS. After 0.5 h at 100 °C, a 100-μl aliquot of the centrifuged SDS-extract was dried onto Whatman No. 3 paper, which was then washed in 75% ethanol supplemented with 0.5% acetic acid, thus removing free [^14C]proline and its low-Mr metabolites if any; radioactivity remaining on the paper ([^14C]protein) was then assayed.

[5] = soluble xyloglucan, laboratory light
[6] = EDI 0.4 mg/ml, LATCA 50 μM, 2 h, dark, cellulose-bound xyloglucan

In the case of `O=c1cc(-c2ccc(O)c(O)c2)oc2cc(O)cc(O)c12` [luteolin], the “effect on XET activity in radiochemical assays (as summarised in the discussion)” value (from here on “effect … (as summarised in the discussion)”) [1, 5] is reported as “inhibited”, the “effect on XET activity in dot-blot (inhibition / promotion)” value (“effect … (inhibition / promotion)” for short) [2, 6] is reported as “promoted” and the “coagulation ('type c' effect) in dot-blot” value (“coagulation … in dot-blot” for short) [2] is reported as “coagulation”.

With `Cc1ccc(SCc2ccc(C(=O)NCc3ccccn3)cc2)cc1` [4-{[(4-methylphenyl)thio]methyl}-N-(2-pyridinylmethyl)-benzamide] the “effect on XET activity, radiochemical re-screen of 206 compounds (mostly LATCA)” value (“effect on XET activity … (mostly LATCA)” below) [1] was “inhibition”.

`O=C(CCc1ccc(O)cc1)c1c(O)cc(O)cc1O` [phloretin] was tested, and the “effect on XET activity, first radiochemical re-screen of EDI hits” value (“effect on XET activity … of EDI hits” for short) [1] was “inhibitory”, the “effect … (as summarised in the discussion)” value [1, 5] was “inhibited” and the “effect … (inhibition / promotion)” value [2, 6] was “promoted”. The “coagulation … in dot-blot” value [2] was “coagulation”.

With `Cc1cc2nc3cc(C)c(N)cc3[n+](-c3ccccc3)c2cc1N` [Safranine O] the “effect … (inhibition / promotion)” value [2, 6] was “stimulatory”.

With `COc1ccc([C@@H]2CC(=O)c3c(O)cc(O)cc3O2)cc1O` [hesperetin] the “effect … (inhibition / promotion)” value [2, 6] was “slightly enhanced”.

In the case of `CC(=O)[O][Hg][c]1ccccc1` [phenylmercuric acetate], the “effect on XET activity … (mostly LATCA)” value [1] is reported as “inhibition” and the “effect … (inhibition / promotion)” value [2, 6] is reported as “inhibitors”.

`COc1cc(O)c2c(c1N)C(=O)c1ccccc1C2=O` [1-amino-4-hydroxy-2-methoxyanthracene-9,10-dione] was tested, and the “inhibition of XET activity” value [1] was 29%, the “effect … (as summarised in the discussion)” value [1, 5] was “moderately inhibitory” and the “effect … (inhibition / promotion)” value [2, 6] was “apparent promoters”.

`CC(C)C(C)C(O)C(O)C(C)C1CCC2C3COC(=O)C4CC(O)C(O)CC4(C)C3CCC12C` (stereo not drawn) [epibrassinolide] was tested, and the “inhibition of XET activity” value [1] was 22%.

`O=c1cc(-c2ccc(O)cc2)oc2cc(O)cc(O)c12` [apigenin] was tested, and the “effect … (as summarised in the discussion)” value [1, 5] was “little effect”, the “effect … (inhibition / promotion)” value [2, 6] was “promoted” and the “coagulation … in dot-blot” value [2] was “coagulation”.

`COc1c(C)c2c(c(O)c1C/C=C(\C)CCC(=O)O)C(=O)OC2` [mycophenolic acid] was tested, and the membrane function [3] was “impaired” and the “concentration inhibiting growth (PCV) without membrane impairment” value [4] was 60 µM.

For `CCOc1ccc(Nc2ccc(C(=C3C=CC(=[N+](CC)Cc4cccc(S(=O)(=O)[O-])c4)C=C3)c3ccc(N(CC)Cc4cccc(S(=O)(=O)O)c4)cc3)cc2)cc1` [brilliant blue R], the “effect on XET activity … (mostly LATCA)” value [1] was “inhibition”.

For `Cc1cccc(OCC(=O)N/N=C/c2ccc(Br)o2)c1` [N′-(1E)-(5-bromofuran-2-yl)methylidene-2-(3-methylphenoxy)acetohydrazide], the “inhibition of XET activity” value [1] was 24%.

With `O=C(O)c1cc[c]([Hg][Cl])cc1` [4-chloromercuribenzoic acid] the “effect on XET activity … (mostly LATCA)” value [1] was “inhibition”, the XET activity inhibited ([1]; by ∼50 μM, little further inhibition up to ∼400 μM) was 50–60% and the “effect … (inhibition / promotion)” value [2, 6] was “strong inhibitor”.

With `O=[N+]([O-])[O-].[Ag+]` [silver nitrate] the “effect … (inhibition / promotion)” value [2] was “inhibitors”.

In the case of `O=C(O[C@@H]1Cc2c(O)cc(O)cc2O[C@@H]1c1ccc(O)c(O)c1)c1cc(O)c(O)c(O)c1` [epicatechin gallate], the “effect on XET activity … of EDI hits” value [1] is reported as “inhibitory” and the IC50 ([1]; read-out: IC50 (concentration required for 50% inhibition of XET activity), radiochemical assay, soluble xyloglucan, laboratory light, 2 h, 20 °C) is reported as ~400 µM.

For `Cc1cc(C(=C2C=CC(=Nc3ccc(S(=O)(=O)O)cc3)C=C2)c2ccc(Nc3ccc(S(=O)(=O)O)cc3)cc2)cc(S(=O)(=O)O)c1N` [aniline blue], the “effect … (as summarised in the discussion)” value [1, 5] was “inhibiting XET activity”.

`O=C(O)[C@]1(O)C[C@@H](O)[C@@H](O)[C@H](O)C1` [quinic acid] was tested, and the “effect … (as summarised in the discussion)” value [1, 5] was “little effect” and the “effect … (inhibition / promotion)” value [2, 6] was “promoted”.

`O=C(O)c1ccccc1C(=O)O` [phthalic acid] was tested, and the “effect … (inhibition / promotion)” value [2, 6] was “promotion”.

For `C[CH2][Hg][S]c1ccccc1C(=O)[O-].[Na+]` [thiomersal], the “effect on XET activity … (mostly LATCA)” value [1] was “inhibition” and the “effect … (inhibition / promotion)” value [2, 6] was “did not show inhibitory effects”.

`O=C1OC(c2ccc(O)cc2)(c2ccc(O)cc2)c2ccccc21` [phenolphthalein] was tested, and the “effect on XET activity … of EDI hits” value [1] was “inhibitory” and the “coagulation … in dot-blot” value [2] was “coagulation”.

`C=C[C@@]1(C)CC(=O)[C@]2(O)[C@@]3(C)[C@@H](O)CCC(C)(C)[C@@H]3[C@H](O)[C@H](OC(C)=O)[C@@]2(C)O1` [forskolin] was tested, and the “effect … (inhibition / promotion)” value [2, 6] was “stimulatory”.

For `O=C1c2cccc3c(Br)ccc(c23)C(=O)N1O` [6-bromo-2-hydroxy-1H-benzo[de]isoquinoline-1,3(2H)-dione], the “effect on XET activity … (mostly LATCA)” value [1] was “inhibition”.

`O=C(CCc1ccc(O)cc1)c1c(O)cc(O)cc1O[C@@H]1O[C@H](CO)[C@@H](O)[C@H](O)[C@H]1O` [phloridzin] was tested, and the “effect … (inhibition / promotion)” value [2, 6] was “slightly enhanced”.

In the case of `Cc1cc(C2(c3cc(C)c(O)c(Br)c3)OS(=O)(=O)c3ccccc32)cc(Br)c1O` [bromocresol purple], the “effect on XET activity … (mostly LATCA)” value [1] is reported as “inhibition”.

For tannic acid, the “effect on XET activity … of EDI hits” value [1] was “inhibitory”.

With `OCc1c[nH]c2ccccc12` [indole 3-carbinol] the “effect … (inhibition / promotion)” value [2, 6] was “stimulatory”.

With `C[C@@H]1C/C=C/C=C/C=C/C=C/[C@H](O[C@@H]2O[C@H](C)[C@@H](O)[C@H](N)[C@@H]2O)C[C@@H]2O[C@](O)(C[C@@H](O)C[C@H]3O[C@@H]3/C=C/C(=O)O1)C[C@H](O)[C@H]2C(=O)O` [natamycin] the “effect … (inhibition / promotion)” value [2, 6] was “stimulatory”.

For `O=c1c2ccccc2[se]n1-c1ccccc1` [ebselen], the “effect on XET activity … (mostly LATCA)” value [1] was “inhibition”, the “concentration inhibiting growth (PCV) without membrane impairment” value [4] was 70 µM and the “effect … (inhibition / promotion)” value [2, 6] was “XET inhibitor”.

In the case of `COc1cccc2c1C(=O)c1c(O)c3c(c(O)c1C2=O)C[C@@](O)(C(C)=O)C[C@@H]3O[C@H]1C[C@H](N)[C@H](O)[C@H](C)O1` [daunorubicin], the “effect … (as summarised in the discussion)” value [1, 5] is reported as “moderately inhibitory; also recorded: inhibited” and the “effect … (inhibition / promotion)” value [2, 6] is reported as “apparent promoters; also recorded: promoted”.

For `O=C(O)[C@H](O)[C@@H](O)[C@H](O[C@@H]1O[C@H](CO)[C@H](O)[C@H](O)[C@H]1O)[C@H](O)CO` [lactobionic acid], the “effect … (as summarised in the discussion)” value [1, 5] was “little effect” and the “effect … (inhibition / promotion)” value [2, 6] was “promotion; also recorded: promoted”.

In the case of `O=c1cc(-c2ccccc2)oc2cc(O)c(O)c(O)c12` [baicalein], the “effect … (as summarised in the discussion)” value [1, 5] is reported as “inhibited”, the “effect … (inhibition / promotion)” value [2, 6] is reported as “promoted” and the “coagulation … in dot-blot” value [2] is reported as “coagulation”.

In the case of `Cc1cc2nc3c(=O)[nH]c(=O)nc-3n(C[C@H](O)[C@H](O)[C@H](O)COP(=O)(O)OP(=O)(O)OC[C@H]3O[C@@H](n4cnc5c(N)ncnc54)[C@H](O)[C@@H]3O)c2cc1C` [flavin adenine dinucleotide], the “effect on XET activity … (mostly LATCA)” value [1] is reported as “inhibition” and the “effect … (inhibition / promotion)” value [2, 6] is reported as “did not show inhibitory effects”.

In the case of `O=C(O)[C@H](O)[C@@H](O)[C@H](O)CO` [xylonic acid], the “effect … (inhibition / promotion)” value [2, 6] is reported as “promotion”.
